Measurements reported in article PMC6297231 (Nature Communications, 2018).

Legend:
Test in all cases: cells
THP-1 = settings: Homo sapiens, THP-1, 6 h, read-out: AZD5991 6h EC50
How it was run: (§1)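 Cells were seeded at 3000 cells/well in their respective growth media and treated with compound. Caspase-3/7 activation was read by Caspase-Glo 3/7 luminescence and viability by CellTiter-Glo; EC50 and GI50 came from dose–response curves. Caspase activation is expressed relative to a cell-kill control set at 100%.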

Sudhl6 = settings: Homo sapiens, SU-DHL-6, 6 h, read-out: AZD5991 6h EC50
How it was run: as §1

KMS12BM = settings: Homo sapiens, KMS-12-BM, 6 h, read-out: AZD5991 6h EC50
How it was run: as §1

647V = settings: Homo sapiens, 6 h, read-out: AZD5991 6h EC50
How it was run: as §1

KMS11 = settings: Homo sapiens, KMS-11, 6 h, read-out: AZD5991 6h EC50
How it was run: as §1

Kasumi3 = settings: Kasumi-3, 6 h, read-out: AZD5991 6h EC50
How it was run: as §1

OCILY7 = settings: Homo sapiens, OCI-Ly7, 6 h, read-out: AZD5991 6h EC50
How it was run: as §1

MCF7 = settings: Homo sapiens, MCF7, 6 h, read-out: AZD5991 6h EC50
How it was run: as §1

ML2 = settings: Homo sapiens, ML-2, 6 h, read-out: AZD5991 6h EC50
How it was run: as §1

HL60 = settings: Homo sapiens, HL-60, 6 h, read-out: AZD5991 6h EC50
How it was run: as §1

H82 = settings: Homo sapiens, NCI-H82, 6 h, read-out: AZD5991 6h EC50
How it was run: as §1

DMS114 = settings: Homo sapiens, DMS-114, 6 h, read-out: AZD5991 6h EC50
How it was run: as §1

H2126 = settings: Homo sapiens, NCI-H2126, 6 h, read-out: AZD5991 6h EC50
How it was run: as §1

HCC827 = settings: Homo sapiens, HCC827, 6 h, read-out: AZD5991 6h EC50
How it was run: as §1

H460 = settings: Homo sapiens, NCI-H460, 6 h, read-out: AZD5991 6h EC50
How it was run: as §1

BT20 = settings: Homo sapiens, BT-20, 6 h, read-out: AZD5991 6h EC50
How it was run: as §1

Sudhl10 = settings: Homo sapiens, SU-DHL10, 6 h, read-out: AZD5991 6h EC50
How it was run: as §1

Kasumi1 = settings: Homo sapiens, Kasumi 1, 6 h, read-out: AZD5991 6h EC50
How it was run: as §1

AMO1 = settings: Homo sapiens, AMO1, 6 h, read-out: AZD5991 6h EC50
How it was run: as §1

Will2 = settings: 6 h, read-out: AZD5991 6h EC50
How it was run: as §1

OCIAML2 = settings: Homo sapiens, OCI-AML2, 6 h, read-out: AZD5991 6h EC50
How it was run: as §1

PL21 = settings: PL-21, 6 h, read-out: AZD5991 6h EC50
How it was run: as §1

OE21 = settings: OE21, 6 h, read-out: AZD5991 6h EC50
How it was run: as §1

H2286 = settings: Homo sapiens, NCI-H2286, 6 h, read-out: AZD5991 6h EC50
How it was run: as §1

MM1R = settings: MM.1R, 6 h, read-out: AZD5991 6h EC50
How it was run: as §1

MDAMB468 = settings: Homo sapiens, MDA-MB-468, 6 h, read-out: AZD5991 6h EC50
How it was run: as §1

EOL1 = settings: Homo sapiens, EOL1, 6 h, read-out: AZD5991 6h EC50
How it was run: as §1

WM2664 = settings: Homo sapiens, WM 266-4, 6 h, read-out: AZD5991 6h EC50
How it was run: as §1

H2110 = settings: NCI-H2110, 6 h, read-out: AZD5991 6h EC50
How it was run: as §1

BT549 = settings: Homo sapiens, BT-549, 6 h, read-out: AZD5991 6h EC50
How it was run: as §1

JVM2 = settings: Homo sapiens, JVM-2, 6 h, read-out: AZD5991 6h EC50
How it was run: as §1

LK2 = settings: Homo sapiens, LK-2, 6 h, read-out: AZD5991 6h EC50
How it was run: as §1

KMS34 = settings: KMS-34, 6 h, read-out: AZD5991 6h EC50
How it was run: as §1

SNU1197 = settings: 6 h, read-out: AZD5991 6h EC50
How it was run: as §1

SMILES: Cc1c2c(nn1C)CSCc1cc(n(C)n1)CSc1cc(c3ccccc3c1)OCCCc1c(C(=O)O)n(C)c3c-2c(Cl)ccc13 (atropisomer, axis not shown; (Ra)) [(Ra)-7]
- EC50 (THP-1): 125 nM
- EC50 (Sudhl6): 56 nM
- EC50 (KMS12BM): 56 nM
- EC50 (647V): 26500 nM
- EC50 (KMS11): 1570 nM
- EC50 (Kasumi3): 882 nM
- EC50 (OCILY7): 36 nM
- EC50 (MCF7): 313 nM
- EC50 (ML2): 83 nM
- EC50 (HL60): 656 nM
- EC50 (H82): 201 nM
- EC50 (DMS114): 290 nM
- EC50 (H2126): 157 nM
- EC50 (HCC827): > 30000 nM
- EC50 (H460): > 30000 nM
- EC50 (BT20): > 30000 nM
- EC50 (Sudhl10): 10 nM
- EC50 (Kasumi1): 297 nM
- EC50 (AMO1): 90 nM
- EC50 (Will2): 193 nM
- EC50 (OCIAML2): 472 nM
- EC50 (PL21): 409 nM
- EC50 (OE21): 187 nM
- EC50 (H2286): > 30000 nM
- EC50 (MM1R): 120 nM
- EC50 (MDAMB468): > 30000 nM
- EC50 (EOL1): 13 nM
- EC50 (WM2664): > 30000 nM
- EC50 (H2110): 226 nM
- EC50 (BT549): 1780 nM
- EC50 (JVM2): 1030 nM
- EC50 (LK2): > 30000 nM
- EC50 (KMS34): 240 nM
- EC50 (SNU1197): > 30000 nM
